Common to all, as to assay type: cell-based
One assay has as its system T-47D cells. As to the kind of experiment: Inhibition of cell proliferation in T-47D cells (CCK-8). Particulars: Homo sapiens, T47D, 144 h, 6 days treatment, CCK-8 cell viability. The gist of the method:
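Viability by CCK-8 after a 6-day, 37 °C/5% CO2 exposure of T-47D cells (3,000/well, RPMI-1640 + 10% FBS) to graded PROTAC concentrations. Inhibition rates gave the IC50.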

In assay [1] the target is T1, ERα (Homo sapiens, UniProt P03372).
T1 sequence (P03372 1-595): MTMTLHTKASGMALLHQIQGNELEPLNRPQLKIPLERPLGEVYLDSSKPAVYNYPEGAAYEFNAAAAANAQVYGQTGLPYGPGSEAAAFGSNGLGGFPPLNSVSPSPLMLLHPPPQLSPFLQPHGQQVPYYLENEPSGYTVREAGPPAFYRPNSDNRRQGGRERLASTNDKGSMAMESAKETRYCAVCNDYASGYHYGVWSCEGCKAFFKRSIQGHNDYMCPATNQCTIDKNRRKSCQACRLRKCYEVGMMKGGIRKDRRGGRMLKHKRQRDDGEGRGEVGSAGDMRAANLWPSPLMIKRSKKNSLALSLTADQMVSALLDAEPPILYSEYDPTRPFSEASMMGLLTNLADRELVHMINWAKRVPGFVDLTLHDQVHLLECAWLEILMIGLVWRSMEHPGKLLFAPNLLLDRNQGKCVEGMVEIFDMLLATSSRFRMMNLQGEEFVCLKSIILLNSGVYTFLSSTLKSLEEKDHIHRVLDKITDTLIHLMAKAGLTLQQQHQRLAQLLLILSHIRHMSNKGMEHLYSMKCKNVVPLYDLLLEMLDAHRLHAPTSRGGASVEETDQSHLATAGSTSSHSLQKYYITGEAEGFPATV
As to the kind of experiment: ERα degradation in MCF-7 cells (Western blot). Further details: host or cells: MCF-7. Conditions: 4 hours. The gist of the method: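 ERα degradation was quantified by immunoblot densitometry, ERα signal divided by internal-reference signal and compared with control. Compounds were applied to MCF-7 cells for 4 hours at final concentrations of 0.15–1000 nM, with 20 µg total protein loaded per lane.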
For orientation: In western blotting, separated proteins are transferred to a membrane and probed.

The next assay has as its system MCF-7 cells. Briefly: Inhibition of cell proliferation in MCF-7 cells (CCK-8). Particulars: MCF-7 cell proliferation, 6 days treatment. The method, boiled down:
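IC50 from CCK-8 viability-based inhibition after 6-day treatment of MCF-7 cells (800 cells/well, 10% FBS DMEM, 37 °C, 5% CO2) with serially varied compound concentrations.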

For assay [2], the target named is T1, ERα. As to the kind of experiment: ERα degradation in T-47D cells (Western blot). Conditions: 4 hours. The gist of the method:
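ERα was quantified by immunoblot of RIPA lysates (20 µg total protein), normalised to an internal reference band, and degradation was expressed against control. Lysates came from T-47D cells plated at 3×10^5 cells/well and dosed 4 hours at 37°C with compound at 0.15-1000 nM final concentration.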

Usually IC50 stands for the concentration that gives 50% inhibition. Low readings indicate greater potency in that assay, high ones weaker potency in that assay.

Molecules are shown by their SMILES.

Take `O=C1CCC(Nc2ccc3c(c2)OC[C@@H]2CN(C4CCC5(CC4)CN(c4ccc([C@@H]6c7ccc(O)cc7CC[C@@H]6c6ccccc6)cc4)C5)CCN32)C(=O)N1` (stereo partly drawn) [ER-P-36, 3-(((S)-3-(2-(4-((1R,2S)-6-hydroxy-2-phenyl-1,2,3,4-tetrahydronaphthalen-1-yl)phenyl)-2-azaspiro[3.5]nonan-7-yl)-1,2,3,4,4a,5-hexahydrobenzo[b]pyrazino[1,2-d][1,4]oxazin-8-yl)amino)piperidine-2,6-dione]: the IC50 in the assay with T-47D cells is 25.1 nM; in the assay with MCF-7 cells (Homo sapiens, MCF7, 144 h), 2280 nM. In addition, the “Degradation rate of ERα in MCF-7 cells (%)” value was 7% at ERα [1] (1nM) and -11% on ERα [1] (10nM). Besides, the “Degradation rate of ERα in T-47D cells (%)” value on ERα [2] (1nM) was 0%; at ERα [2] (10nM), 1%.

As to `O=C1CC[C@H](NC(=O)c2ccc3c(c2F)OCC32CCN(C3CC4(CCN(c5ccc([C@@H]6c7ccc(O)cc7CC[C@@H]6c6ccccc6)cc5)CC4)C3)CC2)C(=O)N1` [ER-P-37, N-((S)-2,6-dioxopiperidin-3-yl)-7-fluoro-1'-(7-(4-((1R,2S)-6-hydroxy-2-phenyl-1,2,3,4-tetrahydronaphthalen-1-yl)phenyl)-7-azaspiro[3.5]nonan-2-yl)-2H-spiro[benzofuran-3,4'-piperidine]-6-carboxamide], the IC50 in the assay on T-47D cells stood at 18.9 nM; in the assay on MCF-7 cells (Homo sapiens, MCF7, 144 h), 1400 nM. The “Degradation rate of ERα in MCF-7 cells (%)” value was -6% at ERα [1] (1nM) and -9% on ERα [1] (10nM). Moreover, the “Degradation rate of ERα in T-47D cells (%)” value came out at 6% at ERα [2] (1nM) and 4% on ERα [2] (10nM).

Turning to `O=C1CC[C@H](NC(=O)c2ccc3c(c2F)OCC32CCN(C3CCC4(CC3)CN(c3ccc([C@@H]5c6ccc(O)cc6CC[C@@H]5c5ccccc5)cc3)C4)CC2)C(=O)N1` [ER-P-38, N-((S)-2,6-dioxopiperidin-3-yl)-7-fluoro-1'-(2-(4-((1R,2S)-6-hydroxy-2-phenyl-1,2,3,4-tetrahydronaphthalen-1-yl)phenyl)-2-azaspiro[3.5]nonan-7-yl)-2H-spiro[benzofuran-3,4'-piperidine]-6-carboxamide], the IC50 in the assay with T-47D cells was determined as 18.6 nM; with MCF-7 cells (Homo sapiens, MCF7, 144 h), 505 nM. In addition, the “Degradation rate of ERα in MCF-7 cells (%)” value is recorded as 12% on ERα [1] (1nM) and -14% at ERα [1] (10nM). The results for the “Degradation rate of ERα in T-47D cells (%)” value on ERα [2] (1nM) and at ERα [2] (10nM) were 1% and 3%, respectively.

Turning to `O=C1CC[C@H](NC(=O)c2ccc3c(c2F)OCC32CCN(C3CCC4(CC3)CCN(c3ccc([C@@H]5c6ccc(O)cc6CC[C@@H]5c5ccccc5)cc3)CC4)CC2)C(=O)N1` [ER-P-39, N-((S)-2,6-dioxopiperidin-3-yl)-7-fluoro-1'-(3-(4-((1R,2S)-6-hydroxy-2-phenyl-1,2,3,4-tetrahydronaphthalen-1-yl)phenyl)-3-azaspiro[5.5]undecan-9-yl)-2H-spiro[benzofuran-3,4'-piperidine]-6-carboxamide], the IC50 came to 14.2 nM in the assay with T-47D cells and 526 nM in the assay on MCF-7 cells (Homo sapiens, MCF7, 144 h). Also, the entries for the “Degradation rate of ERα in MCF-7 cells (%)” value on ERα [1] (1nM) and on ERα [1] (10nM) were -13% and -16%, respectively. Further, the “Degradation rate of ERα in T-47D cells (%)” value at ERα [2] (1nM) is recorded as -7%; at ERα [2] (10nM), -3%.

Turning to `CN(C(=O)CN1CCC2(CC1)COc1c2ccc(F)c1C(=O)N[C@H]1CCC(=O)NC1=O)C1CCC2(CC1)CN(c1ccc([C@@H]3c4ccc(O)cc4CC[C@@H]3c3ccccc3)cc1)C2` [ER-P-40, N-((S)-2,6-dioxopiperidin-3-yl)-6-fluoro-1'-(2-((2-(4-((1R,2S)-6-hydroxy-2-phenyl-1,2,3,4-tetrahydronaphthalen-1-yl)phenyl)-2-azaspiro[3.5]nonan-7-yl)(methyl)amino)-2-oxoethyl)-2H-spiro[benzofuran-3,4'-piperidine]-7-carboxamide], the IC50 in the assay with T-47D cells turned out to be 28.4 nM; in the assay on MCF-7 cells (Homo sapiens, MCF7, 144 h), 6210 nM. The “Degradation rate of ERα in MCF-7 cells (%)” value was -10% at ERα [1] (1nM) and -53% at ERα [1] (10nM). For the same molecule, the “Degradation rate of ERα in T-47D cells (%)” value is reported as 22% on ERα [2] (1nM) and 34% on ERα [2] (10nM).

Consider `O=C1CCC(Nc2ccc3c(c2)OCC2(CCN(C[C@H]4CC[C@@H](OC5CCN(c6ccc([C@@H]7c8ccc(O)cc8CC[C@@H]7c7ccccc7)cc6)CC5)CC4)CC2)C3)C(=O)N1` (stereo partly drawn) [ER-P-41], for which the IC50 in the assay with T-47D cells turned out to be 37.3 nM; in the assay on MCF-7 cells (Homo sapiens, MCF7, 144 h), 377 nM. Besides, the “Degradation rate of ERα in MCF-7 cells (%)” value on ERα [1] (1nM) came to 13%; at ERα [1] (10nM), 15%. Besides, the “Degradation rate of ERα in T-47D cells (%)” value is listed as 17% at ERα [2] (1nM) and 21% at ERα [2] (10nM).

With `O=C1CC[C@H](NC(=O)c2ccc3c(c2F)OCC32CCN(CC3CCN(c4ccc([C@@H]5c6ccc(O)cc6CC[C@@H]5c5ccccc5)cc4)CC3)CC2)C(=O)N1` [ER-P-42, N-((S)-2,6-dioxopiperidin-3-yl)-7-fluoro-1'-((1-(4-((1R,2S)-6-hydroxy-2-phenyl-1,2,3,4-tetrahydronaphthalen-1-yl)phenyl)piperidin-4-yl)methyl)-2H-spiro[benzofuran-3,4'-piperidine]-6-carboxamide], the IC50 in the assay on T-47D cells turned out to be 10.4 nM; with MCF-7 cells (Homo sapiens, MCF7, 144 h), 4500 nM. Also, the “Degradation rate of ERα in MCF-7 cells (%)” value on ERα [1] (1nM) is reported as -20%; on ERα [1] (10nM) it was -3%. Besides, the “Degradation rate of ERα in T-47D cells (%)” value on ERα [2] (1nM) is reported as -27%; on ERα [2] (10nM), -28%.

Take `O=C1CCC(Nc2ccc3c(c2)OC2(CC3)CCN(C[C@H]3CC[C@@H](OC4CCN(c5ccc([C@@H]6c7ccc(O)cc7CC[C@@H]6c6ccccc6)cc5)CC4)CC3)CC2)C(=O)N1` (stereo partly drawn) [ER-P-43, 3-((1'-(((1S,4s)-4-((1-(4-((1R,2S)-6-hydroxy-2-phenyl-1,2,3,4-tetrahydronaphthalen-1-yl)phenyl)piperidin-4-yl)oxy)cyclohexyl)methyl)spiro[chromane-2,4'-piperidin]-7-yl)amino)piperidine-2,6-dione]: the IC50 in the assay on T-47D cells turned out to be 95.1 nM; in the assay on MCF-7 cells (Homo sapiens, MCF7, 144 h), 1070 nM. Further, the “Degradation rate of ERα in MCF-7 cells (%)” value on ERα [1] (1nM) is listed as -13%; at ERα [1] (10nM), -19%. Also, the “Degradation rate of ERα in T-47D cells (%)” value is 10% on ERα [2] (1nM) and -1% at ERα [2] (10nM).

Take `O=C1CC[C@H](NC(=O)c2ccc3c(c2)OCC[C@H]2CN(CC4CCC(OC5CCN(c6ccc([C@@H]7c8ccc(O)cc8CC[C@@H]7c7ccccc7)cc6)CC5)CC4)CCN32)C(=O)N1` (stereo partly drawn) [ER-P-44, (S)-N-((S)-2,6-dioxopiperidin-3-yl)-3-((4-((1-(4-((1R,2S)-6-hydroxy-2-phenyl-1,2,3,4-tetrahydronaphthalen-1-yl)phenyl)piperidin-4-yl)oxy)cyclohexyl)methyl)-2,3,4,4a,5,6-hexahydro-1H-benzo[b]pyrazino[1,2-d][1,4]oxazepine-9-carboxamide]: the IC50 worked out at 1.26 nM in the assay on T-47D cells and 805 nM in the assay on MCF-7 cells. Moreover, the “Degradation rate of ERα in MCF-7 cells (%)” value at ERα [1] (1nM) turned out to be 10%; on ERα [1] (10nM) it was 39%. Also, the entries for the “Degradation rate of ERα in T-47D cells (%)” value at ERα [2] (1nM) and at ERα [2] (10nM) were -29% and 30%, respectively.

The record behind these values is patent EP4722219A1 (Gan & Lee Pharmaceuticals Co., Ltd., priority 2023, dated 2024).
